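These data come from cells grown in 96-well plates and exposed to compound for 48 hours at five concentrations. Here, GI50 denotes the concentration required for 50% inhibition of growth. At the TGI there is no net growth.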
What was measured:
Assay in all cases: NCI anticancer screen, dose series, 48 h
BT-549 breast = system: BT-549 breast
HOP-92 NSCLC = system: HOP-92 NSCLC
MOLT-4 leukemia = system: MOLT-4 leukemia
NCI-H226 lung = system: NCI-H226 lung
NCI-H23 lung = system: NCI-H23 lung
NCI/ADR-RES ovarian = system: NCI/ADR-RES ovarian
OVCAR-4 ovarian = system: OVCAR-4 ovarian
PC-3 prostate = system: PC-3 prostate
UACC-62 melanoma = system: UACC-62 melanoma
UO-31 renal = system: UO-31 renal

O=C(NCCN1CCOCC1)Nc1ccc(-c2cc3c(Nc4ccc(Oc5cccc(C(F)(F)F)c5)c(Cl)c4)ncnc3s2)cc1 was tested, and the GI50 (BT-549 breast) was 2.32 µM, the TGI (BT-549 breast) was 11.1 µM and the GI50 (HOP-92 NSCLC) was 1.66 µM. The TGI (HOP-92 NSCLC) was 7.43 µM, the GI50 (MOLT-4 leukemia) was 1.22 µM and the TGI (MOLT-4 leukemia) was 3.75 µM. The GI50 (NCI-H226 lung) was 3.18 µM, the TGI (NCI-H226 lung) was 17.1 µM and the GI50 (NCI-H23 lung) was 1.51 µM. For the same molecule, the TGI (NCI-H23 lung) was 5.76 µM, the GI50 (NCI/ADR-RES ovarian) was 6.74 µM and the TGI (NCI/ADR-RES ovarian) was 19.9 µM. It also gave a GI50 (OVCAR-4 ovarian) of 3.26 µM, a TGI (OVCAR-4 ovarian) of 11.5 µM and a GI50 (PC-3 prostate) of 1.41 µM. It also gave a TGI (PC-3 prostate) of 5.6 µM, a GI50 (UACC-62 melanoma) of 1 µM and a TGI (UACC-62 melanoma) of 2.27 µM. It also gave a GI50 (UO-31 renal) of 0.801 µM and a TGI (UO-31 renal) of 1.75 µM.

In the case of O=C(Nc1cccc2cccnc12)c1ccc(N2C(=O)[C@@H]3[C@H](C2=O)[C@@H]2C=C[C@H]3C2)cc1, the GI50 (BT-549 breast) is reported as 16.3 µM, the TGI (BT-549 breast) is reported as > 83.3 µM and the GI50 (HOP-92 NSCLC) is reported as 15.5 µM. The TGI (HOP-92 NSCLC) was > 94.3 µM, the GI50 (MOLT-4 leukemia) was 22.1 µM and the TGI (MOLT-4 leukemia) was > 66.6 µM. For the same molecule, the GI50 (NCI-H226 lung) was 19.8 µM, the TGI (NCI-H226 lung) was > 88.6 µM and the GI50 (NCI-H23 lung) was 23.5 µM. The TGI (NCI-H23 lung) was > 100 µM, the GI50 (NCI/ADR-RES ovarian) was 17.6 µM and the TGI (NCI/ADR-RES ovarian) was 81.2 µM. For the same molecule, the GI50 (OVCAR-4 ovarian) was 3.26 µM, the TGI (OVCAR-4 ovarian) was 48.6 µM and the GI50 (PC-3 prostate) was 25.1 µM. For the same molecule, the TGI (PC-3 prostate) was > 100 µM, the GI50 (UACC-62 melanoma) was 22.4 µM and the TGI (UACC-62 melanoma) was > 86.3 µM. For the same molecule, the GI50 (UO-31 renal) was 3.1 µM and the TGI (UO-31 renal) was > 100 µM.

CS(=O)c1ccc(-c2nc(-c3ccc(F)cc3)c(-c3ccncc3)[nH]2)cc1 (centres undefined) gave a GI50 (BT-549 breast) of 21 µM, a TGI (BT-549 breast) of 72.4 µM and a GI50 (HOP-92 NSCLC) of 28.8 µM. The TGI (HOP-92 NSCLC) was > 100 µM, the GI50 (MOLT-4 leukemia) was 28.3 µM and the TGI (MOLT-4 leukemia) was > 96.4 µM. The GI50 (NCI-H226 lung) was 24.7 µM, the TGI (NCI-H226 lung) was > 73.1 µM and the GI50 (NCI-H23 lung) was 59.2 µM. The TGI (NCI-H23 lung) was > 100 µM, the GI50 (NCI/ADR-RES ovarian) was > 100 µM and the TGI (NCI/ADR-RES ovarian) was > 100 µM. For the same molecule, the GI50 (OVCAR-4 ovarian) was 39.7 µM, the TGI (OVCAR-4 ovarian) was > 100 µM and the GI50 (PC-3 prostate) was 35.6 µM. The TGI (PC-3 prostate) was > 89.4 µM, the GI50 (UACC-62 melanoma) was 9.09 µM and the TGI (UACC-62 melanoma) was > 66 µM. For the same molecule, the GI50 (UO-31 renal) was 20.1 µM and the TGI (UO-31 renal) was > 79.6 µM.

CCCCN(CCCC)CC(C)(C)C(O)c1ccc(OC)c2ccccc12 (centres undefined) was tested, and the GI50 (BT-549 breast) was 12.1 µM, the TGI (BT-549 breast) was 30.3 µM and the GI50 (HOP-92 NSCLC) was 3.11 µM. It also gave a TGI (HOP-92 NSCLC) of 8.81 µM, a GI50 (MOLT-4 leukemia) of 2.68 µM and a TGI (MOLT-4 leukemia) of 11.7 µM. It also gave a GI50 (NCI-H226 lung) of 2.42 µM, a TGI (NCI-H226 lung) of 9.24 µM and a GI50 (NCI-H23 lung) of 2.29 µM. It also gave a TGI (NCI-H23 lung) of 9.36 µM, a GI50 (NCI/ADR-RES ovarian) of 6.13 µM and a TGI (NCI/ADR-RES ovarian) of 23.8 µM. It also gave a GI50 (OVCAR-4 ovarian) of 0.385 µM, a TGI (OVCAR-4 ovarian) of 23.5 µM and a GI50 (PC-3 prostate) of 2.88 µM. For the same molecule, the TGI (PC-3 prostate) was 13.7 µM, the GI50 (UACC-62 melanoma) was 4.87 µM and the TGI (UACC-62 melanoma) was 21.3 µM. For the same molecule, the GI50 (UO-31 renal) was 3.02 µM and the TGI (UO-31 renal) was 17.4 µM.

With C#CCOc1ccc2ncnc(Nc3ccc(NC(=O)CCl)cc3)c2c1 the GI50 (BT-549 breast) was 3.81 µM, the TGI (BT-549 breast) was 16.6 µM and the GI50 (HOP-92 NSCLC) was 12.2 µM. The TGI (HOP-92 NSCLC) was 27.9 µM, the GI50 (MOLT-4 leukemia) was 3.19 µM and the TGI (MOLT-4 leukemia) was 17.7 µM. For the same molecule, the GI50 (NCI-H226 lung) was 17.8 µM, the TGI (NCI-H226 lung) was 68.6 µM and the GI50 (NCI-H23 lung) was 3.85 µM. The TGI (NCI-H23 lung) was 18.4 µM, the GI50 (NCI/ADR-RES ovarian) was 3.76 µM and the TGI (NCI/ADR-RES ovarian) was 36.4 µM. It also gave a GI50 (OVCAR-4 ovarian) of 11.9 µM, a TGI (OVCAR-4 ovarian) of 39.2 µM and a GI50 (PC-3 prostate) of 8.1 µM. The TGI (PC-3 prostate) was 27.6 µM, the GI50 (UACC-62 melanoma) was 8.97 µM and the TGI (UACC-62 melanoma) was 27.4 µM. The GI50 (UO-31 renal) was 8.45 µM and the TGI (UO-31 renal) was 22.2 µM.

For O=C(N=Nc1c(O)[nH]c2c(Cl)cc(Cl)cc12)c1ccncc1, the TGI (BT-549 breast) was > 100 µM, the TGI (HOP-92 NSCLC) was > 100 µM and the TGI (MOLT-4 leukemia) was > 100 µM. For the same molecule, the TGI (NCI-H226 lung) was > 100 µM, the TGI (NCI-H23 lung) was 56.5 µM and the TGI (NCI/ADR-RES ovarian) was 69.4 µM. The TGI (OVCAR-4 ovarian) was 57.2 µM, the TGI (PC-3 prostate) was 40.2 µM and the TGI (UACC-62 melanoma) was 33 µM. The TGI (UO-31 renal) was > 100 µM.

For COc1cccc(Cn2cc3c(c2)-c2oncc2CC3)c1, the GI50 (BT-549 breast) was 6.85 µM, the TGI (BT-549 breast) was > 100 µM and the GI50 (HOP-92 NSCLC) was 2.17 µM. The TGI (HOP-92 NSCLC) was 68.3 µM, the GI50 (MOLT-4 leukemia) was 0.508 µM and the TGI (MOLT-4 leukemia) was > 21.7 µM. For the same molecule, the GI50 (NCI-H226 lung) was 2.72 µM, the TGI (NCI-H226 lung) was > 100 µM and the GI50 (NCI-H23 lung) was 0.471 µM. For the same molecule, the TGI (NCI-H23 lung) was > 80.7 µM, the GI50 (NCI/ADR-RES ovarian) was 0.317 µM and the GI50 (OVCAR-4 ovarian) was 1.3 µM. The TGI (OVCAR-4 ovarian) was > 85.4 µM, the GI50 (PC-3 prostate) was 0.751 µM and the TGI (PC-3 prostate) was > 100 µM. For the same molecule, the GI50 (UACC-62 melanoma) was 0.662 µM, the TGI (UACC-62 melanoma) was > 88.8 µM and the GI50 (UO-31 renal) was 0.671 µM. For the same molecule, the TGI (UO-31 renal) was 43.7 µM.

In the case of CC(=O)NCCCCCCNC(C)=O, the TGI (BT-549 breast) is reported as > 10000 µM, the TGI (HOP-92 NSCLC) is reported as > 6730 µM and the TGI (MOLT-4 leukemia) is reported as > 10000 µM. For the same molecule, the TGI (NCI-H226 lung) was > 10000 µM, the TGI (NCI-H23 lung) was > 10000 µM and the TGI (NCI/ADR-RES ovarian) was > 10000 µM. For the same molecule, the TGI (OVCAR-4 ovarian) was > 9590 µM, the TGI (PC-3 prostate) was > 10000 µM and the TGI (UACC-62 melanoma) was 9870 µM. The TGI (UO-31 renal) was > 10000 µM.

In the case of O=C(c1ccco1)c1c(C(F)(F)F)nc2cc(C(F)(F)F)ccc2[n+]1[O-], the GI50 (BT-549 breast) is reported as 57.8 µM, the TGI (BT-549 breast) is reported as > 100 µM and the GI50 (HOP-92 NSCLC) is reported as 16.5 µM. For the same molecule, the TGI (HOP-92 NSCLC) was 68.8 µM, the GI50 (MOLT-4 leukemia) was > 100 µM and the TGI (MOLT-4 leukemia) was > 100 µM. For the same molecule, the GI50 (NCI-H226 lung) was > 100 µM, the TGI (NCI-H226 lung) was > 100 µM and the GI50 (NCI-H23 lung) was 48.4 µM. For the same molecule, the TGI (NCI-H23 lung) was > 100 µM, the GI50 (NCI/ADR-RES ovarian) was 67.2 µM and the TGI (NCI/ADR-RES ovarian) was > 100 µM. The GI50 (OVCAR-4 ovarian) was > 100 µM, the TGI (OVCAR-4 ovarian) was > 100 µM and the GI50 (PC-3 prostate) was 44.9 µM. For the same molecule, the TGI (PC-3 prostate) was > 100 µM, the GI50 (UACC-62 melanoma) was > 100 µM and the TGI (UACC-62 melanoma) was > 100 µM. The GI50 (UO-31 renal) was 66.9 µM and the TGI (UO-31 renal) was > 100 µM.

CCOC(=O)c1c(C)n(CC(C)C)c2c1cc1oc(=O)c(=O)n3cnc2c13 showed a GI50 (BT-549 breast) of 15.7 µM, a TGI (BT-549 breast) of 43 µM and a GI50 (HOP-92 NSCLC) of 14.5 µM. For the same molecule, the TGI (HOP-92 NSCLC) was 43.4 µM, the GI50 (MOLT-4 leukemia) was 15.8 µM and the TGI (MOLT-4 leukemia) was > 50 µM. The GI50 (NCI-H226 lung) was 9.63 µM, the TGI (NCI-H226 lung) was 29.2 µM and the GI50 (NCI-H23 lung) was 12.3 µM. For the same molecule, the TGI (NCI-H23 lung) was 31 µM, the GI50 (NCI/ADR-RES ovarian) was 11.6 µM and the TGI (NCI/ADR-RES ovarian) was 38 µM. The GI50 (OVCAR-4 ovarian) was 17.4 µM, the TGI (OVCAR-4 ovarian) was > 50 µM and the GI50 (PC-3 prostate) was 24.6 µM. The TGI (PC-3 prostate) was > 50 µM, the GI50 (UACC-62 melanoma) was 9.44 µM and the TGI (UACC-62 melanoma) was 21.6 µM. The GI50 (UO-31 renal) was 20.7 µM and the TGI (UO-31 renal) was > 50 µM.

Molecule C=C1C(=O)O[C@H]2[C@H]1[C@H](OC(=O)/C(C)=C\C)C[C@]1(CO1)[C@@H]1[C@H](OC(C)=O)C=C(C)[C@]21O has a TGI (BT-549 breast) of 24.4 µM, a TGI (HOP-92 NSCLC) of 30.3 µM and a TGI (MOLT-4 leukemia) of 25.6 µM. The TGI (NCI-H226 lung) was > 61.2 µM, the TGI (NCI-H23 lung) was 53.2 µM and the TGI (NCI/ADR-RES ovarian) was 57.4 µM. For the same molecule, the TGI (OVCAR-4 ovarian) was > 100 µM, the TGI (PC-3 prostate) was > 58.8 µM and the TGI (UACC-62 melanoma) was 32.2 µM. It also gave a TGI (UO-31 renal) of 29.4 µM.
